Results reported in PubChem BioAssay AID2060492 (Molecular Pharmacology Branch, DTP, NCI, 2025).

Test system: 695427-040-R-J1-PDC complex spheroids, viability percent T/C
Test: Anticancer human tumor 695427-040-R-J1-PDC patient-derived colon adenocarcinoma cell line growth inhibition [GQUAD]
Details: for IC50: curve of first compound; for viability, T/C: stronger effect = lower value
Text: DNA G-quadruplex Stabilizer Agents in Combinations in Complex Spheroids
A high-throughput screen of multi-cell type tumor spheroids was designed to identify active combinations of DNA G-quadruplex stabilizer agents and targeted small molecules. Complex spheroids include a stromal component modeled by human endothelial cells (HUVEC) and fibroblasts modeled by human mesenchymal stem cells (MSCs). The concentration ranges selected for each drug and investigational agent were based upon clinically achievable concentrations if the clinical Cmax of the agent was known.
Compounds. The drugs and investigational agents: pidnarulex (CX-5461; NSC782164), APTO-253 (NSC789042), BRACO-19 (NSC847499), peposertib (NSC802822), ceralasertib (NSC780249), elimusertib (NSC800525), camonsertib (NSC841442), AZD-1390 (NSC803789), olaparib (NSC753686), talazoparib (NSC767125), ART-558 (NSC835418), sotorasib (NSC818433), MRTX-1133 (NSC836407), SN-38 (NSC673596), topotecan (NSC609699), etoposide (NSC141540), doxorubicin (NSC123127), gemcitabine (NSC613327), 5-fluorouracil (NSC19893), paclitaxel (NSC125973), vemurafenib (NSC761431), panobinostat (NSC761190), R-306465 (JNJ-16241199; NSC773264), adavosertib (NSC754352), TP-3654 (NSC805149), carboplatin (NSC241240), KSQ-4279 (NSC840948), and staurosporine (NSC755774) were obtained from the National Cancer Institute (NCI) Developmental Therapeutics Program Chemical Repository (34). The FDA-approved anticancer drug set is available from the NCI Developmental Therapeutics Program. […] The stock solutions were prepared in dimethyl sulfoxide (DMSO, Sigma-Aldrich, St. Louis, MO, cat. D2650) at 800-fold the tested concentration and stored at -70 degrees C prior to their use. All drugs and investigational agents were tested over a range starting from a high concentration at or near the clinical Cmax and decreasing in half-log increments. If the clinical Cmax for an agent had not been determined, the highest concentration tested was 10 microM.
2.3 Cell Culture. All cells were maintained in an incubator at 37 degrees C and 5% CO2 with 95% humidity. The PDC lines were cultured according to standard operating procedures established by the NCI PDMR. All PDCs were thawed and cultured in Matrigel-coated flasks prepared with a working solution of 1X Ham's F-12 nutrient mix, without supplementation (Invitrogen, cat. 11765054), 100 U/mL penicillin-streptomycin (Invitrogen, cat. 15140122), and 2.5% Matrigel (Corning Inc., cat. 354248) for the first three passages. The 857933-349-R-J2-PDC line was cultured in 6C/Colon 1B media, which includes advanced DMEM/F-12 (Thermo Fisher Scientific, cat. 12634028), 10 mM HEPES (Thermo Fisher Scientific, cat. 15630080), 1X GlutaMAX supplement (Thermo Fisher Scientific, cat. 35050061), 0.1 mg/mL primocin (InvivoGen, cat. ant-pm-2), 10% defined fetal bovine serum, heat inactivated (HyClone Laboratories Inc., cat. SH30070.03HI), 50% L-WRN conditioned media (ATCC, cat. CRL-3276), 1.25 mM N-Acetyl-L-cysteine (Sigma-Aldrich, cat. A9165), 10 mM nicotinamide (Sigma-Aldrich, cat. N0636), 1X B-27 supplement (Thermo Fisher Scientific, cat. 17504044), 1X N-2 supplement (Thermo Fisher Scientific, cat. 17502048), 10 microM Y-27632 dihydrochloride (Tocris Bioscience, cat. 1254), and 50 ng/mL human EGF recombinant protein (Thermo Fisher Scientific, cat. PHG0311). The 485176-168-R4-J1-PDC line was cultured in Panc media, which includes all 6C/Colon 1B media components plus 100 ng/mL human FGF-10 (Thermo Fisher Scientific, cat. 100-26), 500 nM SB-431542 (Selleckchem, cat. S1067), and gastrin (Tocris, cat. 3006).
[…]

[1] = second compound 0.0316 µM, first compound 0.0316 µM
[2] = second compound 0.0316 µM, first compound 0.316 µM
[3] = second compound 0.1 µM, first compound 0.0316 µM
[4] = second compound 0.1 µM, first compound 0.316 µM
[5] = second compound 0.316 µM, first compound 0.0316 µM
[6] = second compound 0.316 µM, first compound 0.316 µM
[7] = second compound 1 µM, first compound 0.0316 µM
[8] = second compound 1 µM, first compound 0.316 µM
[9] = second compound 3.16 µM, first compound 0.0316 µM
[10] = second compound 3.16 µM, first compound 0.316 µM
[11] = second compound 10 µM, first compound 0.0316 µM
[12] = second compound 10 µM, first compound 0.316 µM
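Also: spheroids exposed to compounds for seven days before readout.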

## C=CC(=O)N1CCN(c2nc(=O)n(-c3c(C)ccnc3C(C)C)c3nc(-c4c(O)cccc4F)c(F)cc23)C(C)C1 (centres undefined) + CN(C)c1ccc(Nc2c3ccc(NC(=O)CCN4CCCC4)cc3nc3cc(NC(=O)CCN4CCCC4)ccc23)cc1
Second compound 0.0316 µM
  IC50: > 10000 nM
Second compound 0.1 µM
  IC50: > 10000 nM
Second compound 0.316 µM
  IC50: > 10000 nM
Second compound 1 µM
  IC50: > 10000 nM
Second compound 3.16 µM
  IC50: > 10000 nM
Second compound 10 µM
  IC50: > 10000 nM
[1]
  viability, T/C: 107%
Second compound 0.0316 µM, first compound 0.1 µM
  viability, T/C: 109%
[2]
  viability, T/C: 102%
Second compound 0.0316 µM, first compound 1 µM
  viability, T/C: 104%
Second compound 0.0316 µM, first compound 3.16 µM
  viability, T/C: 106%
Second compound 0.0316 µM, first compound 10 µM
  viability, T/C: 112%
[3]
  viability, T/C: 104%
Second compound 0.1 µM, first compound 0.1 µM
  viability, T/C: 95%
[4]
  viability, T/C: 104%
Second compound 0.1 µM, first compound 1 µM
  viability, T/C: 94.6%
Second compound 0.1 µM, first compound 3.16 µM
  viability, T/C: 103%
Second compound 0.1 µM, first compound 10 µM
  viability, T/C: 110%
[5]
  viability, T/C: 113%
Second compound 0.316 µM, first compound 0.1 µM
  viability, T/C: 113%
[6]
  viability, T/C: 107%
Second compound 0.316 µM, first compound 1 µM
  viability, T/C: 102%
Second compound 0.316 µM, first compound 3.16 µM
  viability, T/C: 106%
Second compound 0.316 µM, first compound 10 µM
  viability, T/C: 108%
[7]
  viability, T/C: 97.9%
Second compound 1 µM, first compound 0.1 µM
  viability, T/C: 106%
[8]
  viability, T/C: 99.7%
Second compound 1 µM, first compound 1 µM
  viability, T/C: 107%
Second compound 1 µM, first compound 3.16 µM
  viability, T/C: 108%
Second compound 1 µM, first compound 10 µM
  viability, T/C: 107%
[9]
  viability, T/C: 107%
Second compound 3.16 µM, first compound 0.1 µM
  viability, T/C: 90.9%
[10]
  viability, T/C: 100%
Second compound 3.16 µM, first compound 1 µM
  viability, T/C: 98.5%
Second compound 3.16 µM, first compound 3.16 µM
  viability, T/C: 101%
Second compound 3.16 µM, first compound 10 µM
  viability, T/C: 100%
[11]
  viability, T/C: 99.2%
Second compound 10 µM, first compound 0.1 µM
  viability, T/C: 89.7%
[12]
  viability, T/C: 89.7%
Second compound 10 µM, first compound 1 µM
  viability, T/C: 92%
Second compound 10 µM, first compound 3.16 µM
  viability, T/C: 99.1%
Second compound 10 µM, first compound 10 µM
  viability, T/C: 90.6%

## CCc1c2c(nc3ccc(O)cc13)-c1cc3c(c(=O)n1C2)COC(=O)[C@]3(O)CC + CN(C)c1ccc(Nc2c3ccc(NC(=O)CCN4CCCC4)cc3nc3cc(NC(=O)CCN4CCCC4)ccc23)cc1
Second compound 0.0316 µM
  IC50: > 316 nM
Second compound 0.1 µM
  IC50: > 316 nM
Second compound 0.316 µM
  IC50: > 316 nM
Second compound 1 µM
  IC50: > 316 nM
Second compound 3.16 µM
  IC50: 247 nM
Second compound 10 µM
  IC50: 252 nM
Second compound 0.0316 µM, first compound 0.000999 µM
  viability, T/C: 104%
Second compound 0.0316 µM, first compound 0.00316 µM
  viability, T/C: 94.5%
Second compound 0.0316 µM, first compound 0.00999 µM
  viability, T/C: 93.3%
[1]
  viability, T/C: 74.7%
Second compound 0.0316 µM, first compound 0.0999 µM
  viability, T/C: 70.8%
[2]
  viability, T/C: 51.3%
Second compound 0.1 µM, first compound 0.000999 µM
  viability, T/C: 108%
Second compound 0.1 µM, first compound 0.00316 µM
  viability, T/C: 90.2%
Second compound 0.1 µM, first compound 0.00999 µM
  viability, T/C: 85.4%
[3]
  viability, T/C: 73.2%
Second compound 0.1 µM, first compound 0.0999 µM
  viability, T/C: 68.5%
[4]
  viability, T/C: 53.2%
Second compound 0.316 µM, first compound 0.000999 µM
  viability, T/C: 103%
Second compound 0.316 µM, first compound 0.00316 µM
  viability, T/C: 94%
Second compound 0.316 µM, first compound 0.00999 µM
  viability, T/C: 84%
[5]
  viability, T/C: 75%
Second compound 0.316 µM, first compound 0.0999 µM
  viability, T/C: 64.2%
[6]
  viability, T/C: 49.6%
Second compound 1 µM, first compound 0.000999 µM
  viability, T/C: 99.2%
Second compound 1 µM, first compound 0.00316 µM
  viability, T/C: 89.3%
Second compound 1 µM, first compound 0.00999 µM
  viability, T/C: 82.1%
[7]
  viability, T/C: 76.1%
Second compound 1 µM, first compound 0.0999 µM
  viability, T/C: 66.8%
[8]
  viability, T/C: 51%
Second compound 3.16 µM, first compound 0.000999 µM
  viability, T/C: 94.2%
Second compound 3.16 µM, first compound 0.00316 µM
  viability, T/C: 97.8%
Second compound 3.16 µM, first compound 0.00999 µM
  viability, T/C: 85.7%
[9]
  viability, T/C: 76.5%
Second compound 3.16 µM, first compound 0.0999 µM
  viability, T/C: 64.2%
[10]
  viability, T/C: 46.2%
Second compound 10 µM, first compound 0.000999 µM
  viability, T/C: 90.2%
Second compound 10 µM, first compound 0.00316 µM
  viability, T/C: 88%
Second compound 10 µM, first compound 0.00999 µM
  viability, T/C: 71.9%
[11]
  viability, T/C: 69.2%
Second compound 10 µM, first compound 0.0999 µM
  viability, T/C: 60.7%
[12]
  viability, T/C: 46.3%
